{"source": "paper PMC8413292", "about": "“Small-molecule polymerase inhibitor protects non-human primates from measles and reduces shedding” (Nature Communications, 2021)", "key": {"[1]": {"test_system": "MV/FrankfurtMain.DEU/17.11 (genotype D8)", "test": "White blood cell counts from whole blood", "assay_type": "in vivo, squirrel monkeys (Saimiri sciureus)", "details": "for Cells [10^3/mm^3], white blood cells / Cells/ml, white blood cells / Counted Cells (Total), white blood cells: individual animals", "procedure": "White blood cell counts, viral load quantification in PBMCs, and quantification of neutralizing antibody titers were performed as follows: for white blood cell counts, blood was diluted 1:100 in 3% acetic acid and cells were counted using a Neubauer chamber. For viral load quantification in PBMCs, blood was centrifuged at 3000 rpm for 15 min and serum was frozen at −20 °C until further use. Red blood cell lysis was performed and the remaining PBMCs were counted using a Neubauer chamber. Viral titers in PBMCs were quantified in quadruplicates using limited dilution method and calculated as TCID50/10^6 PBMCs. Neutralizing antibody titers were quantified by incubating MeV with 2-fold serial dilutions of the respective serum for 20 min at room temperature in quadruplicates. Vero/hSLAM cells were added and incubated for 3 days at 37 °C. Neutralizing antibody titers are expressed as the reciprocal of the highest serum dilution showing no signs of infection. For virus titration from throat swabs, swabs were placed in 150 μl DMEM with 3% penicillin/streptomycin and the titer was quantified by limited dilution method."}, "MeV": {"test_system": "MeV", "details": "depending on the MeV-strain; read-out: in vitro EC50; cited from earlier work"}}, "note": "“And” between values parts separate entries of the source, which are not always exact repeats. Equal entries are not always repeated."}
{"smiles": "Cn1nc(C(F)(F)F)cc1C(=O)Nc1ccc(S(=O)(=O)N2CCCC[C@H]2CCN2CCOCC2)cc1", "note": "[ERDRP-0519]", "values": [{"measurement": "WBC group mean (Mean 2)", "setting": "[1]; prophylactic group, Row 6 (17 dpi)", "value": "4.583 10^3cells/mm^3"}, {"measurement": "WBC group mean (Mean 2)", "setting": "[1]; prophylactic group, Row 7 (21 dpi)", "value": "4.333 10^3cells/mm^3"}, {"measurement": "Cells [10^3/mm^3], white blood cells", "setting": "[1]; therapeutic (d3) group, 0 dpi", "value": "4.25 10^3/mm^3 and 7.75 10^3/mm^3 and 4.75 10^3/mm^3 and 5.75 10^3/mm^3 and 5 10^3/mm^3"}, {"measurement": "Cells/ml, white blood cells", "setting": "[1]; therapeutic (d3) group, 0 dpi", "value": "7.75E+06 Cells/ml and 4.75E+06 Cells/ml and 5.75E+06 Cells/ml and 5.00E+06 Cells/ml and 4.25E+06 Cells/ml"}, {"measurement": "Counted Cells (Total), white blood cells", "setting": "[1]; therapeutic (d3) group, 0 dpi", "value": "17 and 31 and 19 and 23 and 20"}, {"measurement": "Cells [10^3/mm^3], white blood cells", "setting": "[1]; therapeutic (d3) group, 3 dpi", "value": "8.75 10^3/mm^3 and 8.25 10^3/mm^3 (2×) and 6.5 10^3/mm^3 and 5 10^3/mm^3 and 4.5 10^3/mm^3"}, {"measurement": "Cells/ml, white blood cells", "setting": "[1]; therapeutic (d3) group, 3 dpi", "value": "8.25E+06 Cells/ml (2×) and 6.50E+06 Cells/ml and 5.00E+06 Cells/ml and 4.50E+06 Cells/ml and 8.75E+06 Cells/ml"}, {"measurement": "Counted Cells (Total), white blood cells", "setting": "[1]; therapeutic (d3) group, 3 dpi", "value": "35 and 33 (2×) and 26 and 20 and 18"}, {"measurement": "Cells [10^3/mm^3], white blood cells", "setting": "[1]; therapeutic (d3) group, 7 dpi", "value": "3.25 10^3/mm^3 and 8.25 10^3/mm^3 and 4.75 10^3/mm^3 and 3.75 10^3/mm^3 and 7.25 10^3/mm^3 and 2.25 10^3/mm^3"}, {"measurement": "Cells/ml, white blood cells", "setting": "[1]; therapeutic (d3) group, 7 dpi", "value": "8.25E+06 Cells/ml and 4.75E+06 Cells/ml and 3.75E+06 Cells/ml and 7.25E+06 Cells/ml and 2.25E+06 Cells/ml and 3.25E+06 Cells/ml"}, {"measurement": "Counted Cells (Total), white blood cells", "setting": "[1]; therapeutic (d3) group, 7 dpi", "value": "13 and 33 and 19 and 15 and 29 and 9"}, {"measurement": "Cells [10^3/mm^3], white blood cells", "setting": "[1]; therapeutic (d3) group, 10 dpi", "value": "1.75 10^3/mm^3 and 2.75 10^3/mm^3 and 3 10^3/mm^3 and 3.75 10^3/mm^3 and 4.5 10^3/mm^3 and 4.25 10^3/mm^3"}, {"measurement": "Cells/ml, white blood cells", "setting": "[1]; therapeutic (d3) group, 10 dpi", "value": "2.75E+06 Cells/ml and 3.00E+06 Cells/ml and 3.75E+06 Cells/ml and 4.50E+06 Cells/ml and 4.25E+06 Cells/ml and 1.75E+06 Cells/ml"}, {"measurement": "Counted Cells (Total), white blood cells", "setting": "[1]; therapeutic (d3) group, 10 dpi", "value": "7 and 11 and 12 and 15 and 18 and 17"}, {"measurement": "Cells [10^3/mm^3], white blood cells", "setting": "[1]; therapeutic (d3) group, 14 dpi", "value": "6 10^3/mm^3 and 7.5 10^3/mm^3 and 5.5 10^3/mm^3 and 10.75 10^3/mm^3 and 12.75 10^3/mm^3 and 3.25 10^3/mm^3"}, {"measurement": "Cells/ml, white blood cells", "setting": "[1]; therapeutic (d3) group, 14 dpi", "value": "7.50E+06 Cells/ml and 5.50E+06 Cells/ml and 1.08E+07 Cells/ml and 1.28E+07 Cells/ml and 3.25E+06 Cells/ml and 6.00E+06 Cells/ml"}, {"measurement": "Counted Cells (Total), white blood cells", "setting": "[1]; therapeutic (d3) group, 14 dpi", "value": "24 and 30 and 22 and 43 and 51 and 13"}, {"measurement": "Cells [10^3/mm^3], white blood cells", "setting": "[1]; therapeutic (d3) group, 17 dpi", "value": "4.25 10^3/mm^3 and 5 10^3/mm^3 and 4.75 10^3/mm^3 and 4.5 10^3/mm^3 and 3.75 10^3/mm^3"}, {"measurement": "Cells/ml, white blood cells", "setting": "[1]; therapeutic (d3) group, 17 dpi", "value": "5.00E+06 Cells/ml and 4.75E+06 Cells/ml and 4.50E+06 Cells/ml and 3.75E+06 Cells/ml and 4.25E+06 Cells/ml"}, {"measurement": "Counted Cells (Total), white blood cells", "setting": "[1]; therapeutic (d3) group, 17 dpi", "value": "17 and 20 and 19 and 18 and 15"}, {"measurement": "Cells [10^3/mm^3], white blood cells", "setting": "[1]; therapeutic (d3) group, 21 dpi", "value": "4.5 10^3/mm^3 and 3.5 10^3/mm^3 and 10.25 10^3/mm^3 and 7.5 10^3/mm^3 and 2.25 10^3/mm^3"}, {"measurement": "Cells/ml, white blood cells", "setting": "[1]; therapeutic (d3) group, 21 dpi", "value": "3.50E+06 Cells/ml and 1.02E+07 Cells/ml and 7.50E+06 Cells/ml and 2.25E+06 Cells/ml and 4.50E+06 Cells/ml"}, {"measurement": "Counted Cells (Total), white blood cells", "setting": "[1]; therapeutic (d3) group, 21 dpi", "value": "18 and 14 and 41 and 30 and 9"}, {"measurement": "WBC group mean (Mean 2)", "setting": "[1]; therapeutic (d3) group, Row 1 (0 dpi)", "value": "5.5 10^3cells/mm^3"}, {"measurement": "WBC group mean (Mean 2)", "setting": "[1]; therapeutic (d3) group, Row 2 (3 dpi)", "value": "6.875 10^3cells/mm^3"}, {"measurement": "WBC group mean (Mean 2)", "setting": "[1]; therapeutic (d3) group, Row 3 (7 dpi)", "value": "4.917 10^3cells/mm^3"}, {"measurement": "WBC group mean (Mean 2)", "setting": "[1]; therapeutic (d3) group, Row 4 (10 dpi)", "value": "3.333 10^3cells/mm^3"}, {"measurement": "WBC group mean (Mean 2)", "setting": "[1]; therapeutic (d3) group, Row 5 (14 dpi)", "value": "7.642 10^3cells/mm^3"}, {"measurement": "WBC group mean (Mean 2)", "setting": "[1]; therapeutic (d3) group, Row 6 (17 dpi)", "value": "4.45 10^3cells/mm^3"}, {"measurement": "WBC group mean (Mean 2)", "setting": "[1]; therapeutic (d3) group, Row 7 (21 dpi)", "value": "5.61 10^3cells/mm^3"}, {"measurement": "Cells [10^3/mm^3], white blood cells", "setting": "[1]; therapeutic (d7) group, 0 dpi", "value": "2.75 10^3/mm^3 and 3 10^3/mm^3 (2×) and 7.25 10^3/mm^3 and 5.25 10^3/mm^3"}, {"measurement": "Cells/ml, white blood cells", "setting": "[1]; therapeutic (d7) group, 0 dpi", "value": "3.00E+06 Cells/ml (2×) and 7.25E+06 Cells/ml and 5.25E+06 Cells/ml and 2.75E+06 Cells/ml"}, {"measurement": "Counted Cells (Total), white blood cells", "setting": "[1]; therapeutic (d7) group, 0 dpi", "value": "11 and 12 (2×) and 29 and 21"}, {"measurement": "Cells [10^3/mm^3], white blood cells", "setting": "[1]; therapeutic (d7) group, 3 dpi", "value": "7.5 10^3/mm^3 and 12.5 10^3/mm^3 and 6.5 10^3/mm^3 and 7.75 10^3/mm^3 (2×) and 8.75 10^3/mm^3"}, {"measurement": "Cells/ml, white blood cells", "setting": "[1]; therapeutic (d7) group, 3 dpi", "value": "1.25E+07 Cells/ml and 6.50E+06 Cells/ml and 7.75E+06 Cells/ml (2×) and 8.75E+06 Cells/ml and 7.50E+06 Cells/ml"}, {"measurement": "Counted Cells (Total), white blood cells", "setting": "[1]; therapeutic (d7) group, 3 dpi", "value": "30 and 50 and 26 and 31 (2×) and 35"}, {"measurement": "Cells [10^3/mm^3], white blood cells", "setting": "[1]; therapeutic (d7) group, 7 dpi", "value": "4 10^3/mm^3 (3×) and 5 10^3/mm^3 and 3 10^3/mm^3 and 3.25 10^3/mm^3"}, {"measurement": "Cells/ml, white blood cells", "setting": "[1]; therapeutic (d7) group, 7 dpi", "value": "4.00E+06 Cells/ml (3×) and 5.00E+06 Cells/ml and 3.00E+06 Cells/ml and 3.25E+06 Cells/ml"}, {"measurement": "Counted Cells (Total), white blood cells", "setting": "[1]; therapeutic (d7) group, 7 dpi", "value": "16 (3×) and 20 and 12 and 13"}, {"measurement": "Cells [10^3/mm^3], white blood cells", "setting": "[1]; therapeutic (d7) group, 10 dpi", "value": "3 10^3/mm^3 and 2.75 10^3/mm^3 and 2.5 10^3/mm^3"}, {"measurement": "Cells/ml, white blood cells", "setting": "[1]; therapeutic (d7) group, 10 dpi", "value": "2.75E+06 Cells/ml and 2.50E+06 Cells/ml and 3.00E+06 Cells/ml"}, {"measurement": "Counted Cells (Total), white blood cells", "setting": "[1]; therapeutic (d7) group, 10 dpi", "value": "12 and 11 and 10"}, {"measurement": "WBC group mean (Mean 2)", "setting": "[1]; therapeutic (d7) group, Row 1 (0 dpi)", "value": "4.25 10^3cells/mm^3"}, {"measurement": "WBC group mean (Mean 2)", "setting": "[1]; therapeutic (d7) group, Row 2 (3 dpi)", "value": "8.458 10^3cells/mm^3"}, {"measurement": "WBC group mean (Mean 2)", "setting": "[1]; therapeutic (d7) group, Row 3 (7 dpi)", "value": "3.875 10^3cells/mm^3"}, {"measurement": "WBC group mean (Mean 2)", "setting": "[1]; therapeutic (d7) group, Row 4 (10 dpi)", "value": "2.708 10^3cells/mm^3"}, {"measurement": "WBC group mean (Mean 2)", "setting": "[1]; therapeutic (d7) group, Row 5 (14 dpi)", "value": "3.125 10^3cells/mm^3"}, {"measurement": "WBC group mean (Mean 2)", "setting": "[1]; therapeutic (d7) group, Row 6 (17 dpi)", "value": "4.25 10^3cells/mm^3"}, {"measurement": "WBC group mean (Mean 2)", "setting": "[1]; therapeutic (d7) group, Row 7 (21 dpi)", "value": "5.083 10^3cells/mm^3"}, {"measurement": "EC50", "setting": "MeV", "value": "70 to 300", "unit": "nM"}]}
